In patent US20180099931A1 (AbbVie S.à.r.l., priority 2016, published 2018):
Where two headings read alike, the source gives them in different places.

Target: T1, F508delCFTR (Homo sapiens, UniProt P13569, DEL508-508)
T1 construct: expressed in transfected cells; host or cells: CFBE41o- human lung-derived epithelial cells (CFBE4lo-F508delCFTR-HRP), doxycycline-inducible
Assay: Cell Surface Expression-Horse Radish Peroxidase (CSE-HRP) Assay;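 for Maximum % activity (with co-corrector): co-corrector and positive control are both the same reference corrector at 2 µM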
Type: cell-based
Details: for Emax / Maximum % activity (with co-corrector): maximum at any tested concentration, normalized to on-plate positive control; for Emax: read-out: Maximum % activity (without co-corrector)
Description: Cell Surface Expression-Horse Radish Peroxidase (CSE-HRP) Assay;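 for Maximum % activity (with co-corrector): co-corrector and positive control are both the same reference corrector at 2 µM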
The development was achieved by expressing the F508delCFTR mutation along with a horseradish peroxidase (HRP) in the fourth exofacial loop, and then measuring the HRP activity using luminescence readout from these cells, CFBE4lo-F508delCFTR-HRP, that were incubated overnight with the test corrector compounds, either without or with the co-corrector. […] The test compounds were then added either without or with a co-corrector at the required concentrations and further incubated for 18-24 hours at 33° C. The highest concentration tested was 20 μM with an 8-point concentration response curve using a 3-fold dilution in both the test compound without or with the co-corrector. Three replicate plates were run to determine one EC50. All plates contained negative controls (dimethyl sulfoxide, DMSO) and positive control (2 μM of 3-[(2R,4R)-4-({[1-(2,2-difluoro-1,3-benzodioxol-5-yl)cyclopropyl]carbonyl}amino)-7-methoxy-3,4-dihydro-2H-chromen-2-yl]benzoic acid) as well as on-plate concentration response of the positive control. […] The raw counts from the experiment were analyzed using Accelrys® Assay Explorer v3.3.
1−[3*SDPositive Control+3*SDNegative Control/Absolute(MeanPositive Control−MeanNegative Control)]
wherein “SD” is standard deviation.
The % activity measured at each of the 8 test concentrations of the test compound added either without or with a co-corrector (2 μM of 3-[(2R,4R)-4-({[1-(2,2-difluoro-1,3-benzodioxol-5-yl)cyclopropyl]carbonyl}amino)-7-methoxy-3,4-dihydro-2H-chromen-2-yl]benzoic acid) was normalized to the on-plate positive control using the following formulae:
% activity(Test compound without co-corrector)=[(test compound without co-corrector response−DMSO response)/(positive control response−DMSO response)]*100
% activity(Test compound with co-corrector)=[(test compound with co-corrector response−DMSO response)/(positive control response−DMSO response)]*100
The maximum % activity achieved for the test compound either without or with a co-corrector at any tested concentration is presented in Table 4 along with the respective EC50's calculated using the following general sigmoidal curve with variable Hill slope equation (described as Model 42 in the Accelrys® Assay Explorer v3.3 software):
General sigmoidal curve with concentration, response, top, bottom, EC50 and Hill slope. This model describes a sigmoidal curve with an adjustable baseline, a. The equation can be used to fit curves where response is either increasing or decreasing with respect to the independent variable, “x”.
“x” is a concentration of drug under test. “y” is the response. “a” is the maximum response, and “d” is the minimum response “c” is the inflection point (EC50) for the curve. That is, “y” is halfway between the lower and upper asymptotes when x=c. “b” is the slope-factor or Hill coefficient. The sign of b is positive when the response increases with increasing dose and is negative when the response decreases with increasing dose (inhibition).

[1] = test compound without co-corrector
[2] = test compound without co-corrector, read-out: EC50 (without co-corrector)
[3] = with co-corrector (2 μM of 3-[(2R,4R)-4-({[1-(2,2-difluoro-1,3-benzodioxol-5-yl)cyclopropyl]carbonyl}amino)-7-methoxy-3,4-dihydro-2H-chromen-2-yl]benzoic acid)
[4] = with co-corrector (2 μM of 3-[(2R,4R)-4-({[1-(2,2-difluoro-1,3-benzodioxol-5-yl)cyclopropyl]carbonyl}amino)-7-methoxy-3,4-dihydro-2H-chromen-2-yl]benzoic acid), read-out: EC50 (with co-corrector)
[5] = CSE-HRP, test compound without co-corrector, read-out: EC50 (without co-corrector)
[6] = CSE-HRP, with co-corrector (2 μM of 3-[(2R,4R)-4-({[1-(2,2-difluoro-1,3-benzodioxol-5-yl)cyclopropyl]carbonyl}amino)-7-methoxy-3,4-dihydro-2H-chromen-2-yl]benzoic acid), read-out: EC50 (with co-corrector)
[7] = CSE-HRP, with co-corrector (2 μM)

T1 sequence (P13569 with tags, fused parts or gaps DEL508-508): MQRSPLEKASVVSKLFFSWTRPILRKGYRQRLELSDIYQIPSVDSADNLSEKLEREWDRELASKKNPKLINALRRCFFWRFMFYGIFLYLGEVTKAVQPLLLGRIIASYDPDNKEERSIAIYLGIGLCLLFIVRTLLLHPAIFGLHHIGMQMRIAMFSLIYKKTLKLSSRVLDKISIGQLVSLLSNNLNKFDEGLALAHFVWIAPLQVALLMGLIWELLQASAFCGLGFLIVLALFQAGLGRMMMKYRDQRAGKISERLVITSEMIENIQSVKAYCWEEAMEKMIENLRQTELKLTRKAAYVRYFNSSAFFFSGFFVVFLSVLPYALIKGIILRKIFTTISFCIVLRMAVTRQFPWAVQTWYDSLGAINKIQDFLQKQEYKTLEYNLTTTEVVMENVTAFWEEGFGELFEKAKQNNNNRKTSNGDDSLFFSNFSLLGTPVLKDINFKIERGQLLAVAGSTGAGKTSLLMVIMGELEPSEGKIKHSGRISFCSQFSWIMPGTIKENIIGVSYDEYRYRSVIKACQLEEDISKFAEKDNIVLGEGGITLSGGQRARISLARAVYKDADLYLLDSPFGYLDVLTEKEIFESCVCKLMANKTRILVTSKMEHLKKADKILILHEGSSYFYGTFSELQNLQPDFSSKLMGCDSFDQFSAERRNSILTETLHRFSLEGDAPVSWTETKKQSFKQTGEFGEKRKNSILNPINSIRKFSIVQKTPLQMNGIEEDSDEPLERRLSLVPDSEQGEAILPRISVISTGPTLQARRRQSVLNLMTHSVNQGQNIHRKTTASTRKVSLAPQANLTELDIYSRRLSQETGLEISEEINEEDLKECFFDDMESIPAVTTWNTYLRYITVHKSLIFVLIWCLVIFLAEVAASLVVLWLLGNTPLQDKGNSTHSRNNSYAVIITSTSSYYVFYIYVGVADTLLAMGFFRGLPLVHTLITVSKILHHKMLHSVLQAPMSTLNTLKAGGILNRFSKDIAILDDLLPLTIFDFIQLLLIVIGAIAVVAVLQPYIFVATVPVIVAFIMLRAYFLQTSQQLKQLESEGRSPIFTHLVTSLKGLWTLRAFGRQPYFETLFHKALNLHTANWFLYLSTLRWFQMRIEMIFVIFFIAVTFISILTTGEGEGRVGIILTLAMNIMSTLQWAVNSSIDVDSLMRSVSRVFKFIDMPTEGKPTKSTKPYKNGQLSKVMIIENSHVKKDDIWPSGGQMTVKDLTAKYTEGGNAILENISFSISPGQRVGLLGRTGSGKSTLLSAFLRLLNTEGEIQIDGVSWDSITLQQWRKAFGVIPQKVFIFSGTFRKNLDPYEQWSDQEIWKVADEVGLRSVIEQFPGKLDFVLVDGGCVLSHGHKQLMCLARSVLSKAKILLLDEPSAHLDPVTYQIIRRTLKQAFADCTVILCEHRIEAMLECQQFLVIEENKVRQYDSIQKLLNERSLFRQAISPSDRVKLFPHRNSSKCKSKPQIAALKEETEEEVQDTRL

Row | Emax [1] [%] | EC50 [2] [µM] | Maximum % activity (with co-corrector) [3] | EC50 [4] [µM] | EC50 [5] [µM] | EC50 [6] [µM] | Maximum % activity (with co-corrector) [7] | Emax (CSE-HRP, without co-corrector) [%] | Maximum % activity (with co-corrector) (with co-corrector (2 μM)) | Emax (without co-corrector) [%] | Structure (SMILES)
1 | < 100 | 1 to 10 | ++ (≥150 and <350) | 1 to 10 |  |  |  |  |  |  | Cc1cc(C(F)(F)F)cc(N[C@@H]2[C@@H](C(C)(C)C)[C@H](C(=O)O)N(C(=O)C3CCCCC3)[C@@H]2c2ccccc2)[n+]1[O-] (racemic) [III-32]
2 |  |  |  |  | 1 to 10 | 1 to 10 | ++ (≥150 and <350) | < 100 |  |  | CC(C)(C)[C@H]1[C@H](NC2CCOc3ccc(Cl)cc32)[C@H](c2ccccc2)N(C(=O)C2CCCCC2)[C@@H]1C(=O)O (stereo partly shown) [II-167]
3 |  | < 1 |  | < 1 |  |  |  |  | +++ (≥350) | > 200 | COc1ncc(C(F)(F)F)cc1CN[C@H]1[C@H](C(C)(C)C)[C@@H](C(=O)O)N(C(=O)[C@@H]2CCCCO2)[C@H]1c1ccccc1C(C)C [Example 84, (2S,3S,4S,5S)-3-tert-butyl-4-({[2-methoxy-5-(trifluoromethyl)pyridin-3-yl]methyl}amino)-1-[(2S)-oxane-2-carbonyl]-5-[2-(propan-2-yl)phenyl]pyrrolidine-2-carboxylic acid]
4 |  |  |  |  | 1 to 10 | < 1 | +++ (≥350) | > 200 |  |  | COc1ccc(C(C)(C)C)cc1CN[C@H]1[C@H](C(C)(C)C)[C@@H](C(=O)O)N(C(=O)C(C)Oc2ccc(F)cc2)[C@H]1c1ccccc1 (stereo partly shown) [II-310]
5 | > 200 | < 1 |  | < 1 |  |  |  |  | +++ (≥350) |  | COc1ccc(C23CC4CC(CC(C4)C2)C3)cc1CN[C@H]1[C@H](C(C)(C)C)[C@@H](C(=O)O)N(C(=O)C2CCCCC2)[C@H]1c1cccnc1N(C)C [III-183]
6 | > 200 | 1 to 10 | +++ (≥350) | < 1 |  |  |  |  |  |  | COc1nc2ccccc2cc1CN[C@H]1[C@H](C(C)(C)C)[C@@H](C(=O)O)N(C(=O)C2CCOCC2)[C@H]1c1ccccc1C(C)C [II-598]
7 | > 200 | 1 to 10 | +++ (≥350) | 1 to 10 |  |  |  |  |  |  | COc1cc(C(F)(F)F)ccc1CN[C@H]1[C@H](C(C)(C)C)[C@@H](C(=O)O)N(C(=O)[C@@H]2CCCCO2)[C@H]1c1cccnc1N(C)C [II-495]
8 | > 200 | 1 to 10 | +++ (≥350) | 1 to 10 |  |  |  |  |  |  | COc1cc(C(F)(F)F)ccc1CN[C@H]1[C@H](C(C)(C)C)[C@@H](C(=O)O)N(C(=O)OC(C)C)[C@H]1c1ccccc1 [II-487]
9 | 100 to 200 | 1 to 10 |  | < 1 |  |  |  |  | +++ (≥350) |  | COc1ncc(C2CCC2)cc1CN[C@H]1[C@H](C(C)(C)C)[C@@H](C(=O)O)N(C(=O)C2CCCC(C(F)(F)F)C2)[C@H]1c1ccccc1 (stereo partly shown) [III-209]
10 | < 100 | 1 to 10 | ++ (≥150 and <350) | 1 to 10 |  |  |  |  |  |  | COc1ncc(C(F)(F)F)cc1N[C@H]1[C@H](C(C)(C)C)[C@@H](C(=O)O)N(C(=O)C2CCCC(F)(F)C2)[C@H]1c1cccnc1N(C)C (stereo partly shown) [II-488]
11 | > 200 | < 1 |  | < 1 |  |  |  |  | +++ (≥350) |  | COc1ccc(C(C)(C)C)cc1CN[C@H]1[C@H](C(C)(C)C)[C@@H](C(=O)O)N(C(=O)C2CC2c2cccs2)[C@H]1c1ccccc1 (stereo partly shown) [III-193]
12 |  | 1 to 10 |  | < 1 |  |  |  |  | +++ (≥350) | > 200 | COc1ncc(C(F)(F)F)cc1CN[C@H]1[C@H](C(C)(C)C)[C@@H](C(=O)O)N(C(=O)[C@@H]2CCCCO2)[C@H]1c1ccccc1C1CC1 [Example 116, (2S,3S,4S,5S)-3-tert-butyl-5-(2-cyclopropylphenyl)-4-({[2-methoxy-5-(trifluoromethyl)pyridin-3-yl]methyl}amino)-1-[(2S)-oxane-2-carbonyl]pyrrolidine-2-carboxylic acid]
13 |  | 1 to 10 |  | 1 to 10 |  |  |  |  | +++ (≥350) | 100 to 200 | COc1cc(C(F)(F)F)ccc1CN[C@H]1[C@H](C(C)(C)C)[C@@H](C(=O)O)N(C(=O)C2CCCCC2)[C@H]1c1cccnc1N(C)C [Example I-44]
14 |  |  |  |  | 1 to 10 | 1 to 10 | +++ (≥350) | < 100 |  |  | Cc1ccc(C#N)c(N[C@H]2[C@H](C(C)(C)C)[C@@H](C(=O)O)N(C(=O)C3CCCCC3)[C@H]2c2ccccc2)n1 [II-146]
15 |  | 1 to 10 |  | < 1 |  |  |  |  | +++ (≥350) | > 200 | COc1cc2c(cc1CN[C@H]1[C@H](C(C)(C)C)[C@@H](C(=O)O)N(C(=O)[C@@H]3CCCC(F)(F)C3)[C@H]1c1ccccc1)CCC2 [Example I-190]
16 |  | 1 to 10 |  | 1 to 10 |  |  |  |  | +++ (≥350) | 100 to 200 | COc1cc(C(F)(F)F)ccc1CN[C@H]1[C@H](C(C)(C)C)[C@@H](C(=O)O)N(C(=O)C(C)c2ccccc2)[C@H]1c1ccccc1 (relative stereo) [Example 11, (2S,3S,4S,5S)-3-tert-butyl-4-({[2-methoxy-4-(trifluoromethyl)phenyl]methyl}amino)-5-phenyl-1-[(2R*)-2-phenylpropanoyl]pyrrolidine-2-carboxylic acid]
17 |  | 1 to 10 |  | 1 to 10 |  |  |  |  | +++ (≥350) | 100 to 200 | COc1ccc(C(F)(F)F)cc1CN[C@H]1[C@H](C(C)(C)C)[C@@H](C(=O)O)N(C(=O)C2CCC(C(F)(F)F)C2)[C@H]1c1ccccc1 (stereo partly shown) [Example I-163]
18 |  |  |  |  | 1 to 10 | < 1 | +++ (≥350) | > 200 |  |  | COc1ccc(-c2ccccc2)cc1CN[C@H]1[C@H](C(C)(C)C)[C@@H](C(=O)O)N(C(=O)OC(C)C)[C@H]1c1ccccc1 [II-160]
19 | < 100 | > 10 |  | 1 to 10 |  |  |  |  | ++ (≥150 and <350) |  | CC(C)(C)[C@H]1[C@H](NCc2ccc(C(F)(F)F)cc2)[C@H](c2ccccc2)N(C(=O)C2CCCCC2)[C@@H]1C(=O)O [III-138]
20 |  | < 1 |  | < 1 |  |  |  |  | +++ (≥350) | > 200 | COc1ccc(C23CC(C2)C3)cc1CN[C@H]1[C@H](C(C)(C)C)[C@@H](C(=O)O)N(C(=O)[C@@H]2CCCC(F)(F)C2)[C@H]1c1ccccc1 [Example 67, (2S,3S,4S,5S)-4-({[5-(bicyclo[1.1.1]pentan-1-yl)-2-methoxyphenyl]methyl}amino)-3-tert-butyl-1-[(1R)-3,3-difluorocyclohexane-1-carbonyl]-5-phenylpyrrolidine-2-carboxylic acid]
21 | > 200 | 1 to 10 | +++ (≥350) | < 1 |  |  |  |  |  |  | COc1ccc(-n2ncc(C(=O)N3[C@H](C(=O)O)[C@@H](C(C)(C)C)[C@H](NCc4cc(C(C)(C)C)ccc4OC)[C@@H]3c3ccccc3)c2C)cc1 [II-357]
22 | > 200 | < 1 | +++ (≥350) | < 1 |  |  |  |  |  |  | COc1ccc(C(C)(C)C)cc1CN[C@H]1[C@H](C(C)(C)C)[C@@H](C(=O)O)N(C(=O)C2CCc3cccc(OC)c3C2)[C@H]1c1ccccc1 (stereo partly shown) [II-317]
